US20090030015A1, “NOVEL MULTI-CYCLIC COMPOUNDS” (REVOTAR BIOPHARMACEUTICALS AG, priority 2005, published 2009)

Key:
[1] = target: T1, human P-Selectin-IgG-chimera (Homo sapiens, UniProt P16109); assay: Sialyl Lewis X Tyrosine Sulfate Assay (sLex TSA), P-selectin; assay type: binding; details: sLexTSA; for P-Selectin [% inhib.]: in vitro inhibition at 100 μM
T1 sequence (P16109 42-771 limits assumed): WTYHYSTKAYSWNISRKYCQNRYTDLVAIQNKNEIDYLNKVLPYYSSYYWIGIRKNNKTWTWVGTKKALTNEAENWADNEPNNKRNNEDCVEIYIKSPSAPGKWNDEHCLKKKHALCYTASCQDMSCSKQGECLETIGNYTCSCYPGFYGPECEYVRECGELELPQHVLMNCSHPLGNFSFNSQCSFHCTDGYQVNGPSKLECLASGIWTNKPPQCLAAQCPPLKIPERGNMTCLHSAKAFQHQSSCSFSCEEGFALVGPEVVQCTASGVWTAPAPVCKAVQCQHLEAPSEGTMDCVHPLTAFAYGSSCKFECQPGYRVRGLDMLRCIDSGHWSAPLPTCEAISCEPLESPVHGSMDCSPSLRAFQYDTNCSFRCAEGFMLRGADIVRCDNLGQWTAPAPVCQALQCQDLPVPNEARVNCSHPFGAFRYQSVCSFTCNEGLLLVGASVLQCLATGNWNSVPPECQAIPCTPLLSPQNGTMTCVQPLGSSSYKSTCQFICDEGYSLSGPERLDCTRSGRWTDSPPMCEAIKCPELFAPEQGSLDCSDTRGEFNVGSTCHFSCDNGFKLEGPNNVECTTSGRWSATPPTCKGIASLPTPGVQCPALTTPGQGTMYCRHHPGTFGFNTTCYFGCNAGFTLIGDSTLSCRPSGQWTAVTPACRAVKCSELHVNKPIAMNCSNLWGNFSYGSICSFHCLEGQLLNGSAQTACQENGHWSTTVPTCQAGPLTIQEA
Procedure: (§1) Sialyl Lewis^X Tyrosine Sulfate Assay (sLe^x TSA):
(§2) Compounds of the present invention are assayed on a molecular level for their ability to inhibit the binding of P-, L-, or E-selectin chimeric molecules to sLe^x and tyrosinesulfate residues linked to a polymeric matrix as a PSGL-1 substitute. Selected IC50-values are determined.
(§3) Microtiter plates are coated overnight in carbonate buffer pH9.6 with goat anti human Fc mAB (10 μg/ml). After washing in assay buffer (25 mM 4-(2-hydroxyethyl)-1-piperazineethanesulfonic acid (HEPES), 150 mM NaCl, 1 mM CaCl2 pH7.4) and blocking (3% bovine serum albumin (BSA) in assay buffer) plates are incubated for 2 h at 37° C. with human P-Selectin-IgG-chimera (0.61 nM respectively 150 ng/mL) or human L-Selectin-IgG-chimera (0.61 nM respectively 89 ng/mL) or human E-Selectin-IgG-chimera (0.61 nM respectively 131 ng/mL). 5 μl of sLe^x-tyrosine sulfate polyacrylamide (1 mg/ml) carrying 15% sLe^x, 10% Tyrosine-sulfate and 5% biotin is complexed with 20 μl Streptavidin-Peroxidase solution (1 mg/ml) and 25 μl assay buffer without CaCl2. For use in the assay, the ligand complex is diluted 1:10000 in assay buffer and further diluted 1:1 with varying amounts of compounds in assay buffer incl. 2% DMSO. This mixture is added to the wells precoated with E- or P-selectin. After incubation for 2 h at 37° C., wells are washed for six times with in assay buffer incl. 0.005% Polyoxyethylenesorbitan monolaurate (TWEEN 20), developed for 10-15 min with 20 μl 3,3′,5,5′-tetramethylbenzidine (TMB)/H2O2 substrate solution and stopped with 20 μl 1M H2SO4. Bound sLe^x-Tyrosine sulfate ligand complex is determined by measuring optical density at 450 nm vs. 620 nm in a Fusion alpha-FP reader (sold from Packard Bioscience, Dreieich, Germany).

[2] = target: T2, human E-Selectin-IgG-chimera (Homo sapiens, UniProt P16581); assay: Sialyl Lewis X Tyrosine Sulfate Assay (sLex TSA), E-selectin; assay type: binding; details: sLexTSA, in vitro inhibition at 100 μM
T2 construct: fused on or other part: human IgG Fc part, captured on the plate by goat anti human Fc antibody; a tag, no second protein
T2 sequence (P16581 22-175 limits assumed): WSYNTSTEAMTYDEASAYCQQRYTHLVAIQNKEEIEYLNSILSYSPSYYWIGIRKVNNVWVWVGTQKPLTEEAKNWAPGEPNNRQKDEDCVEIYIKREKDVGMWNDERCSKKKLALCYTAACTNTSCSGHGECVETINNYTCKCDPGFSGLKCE
Procedure: as §1, §2, §3

[3] = target: T3, human L-Selectin-IgG-chimera (Homo sapiens, UniProt P14151); assay: Sialyl Lewis X Tyrosine Sulfate Assay (sLex TSA), L-selectin; assay type: binding; details: sLexTSA; for L-Selectin [% inhib.]: in vitro inhibition at 100 μM
T3 construct: fused on or other part: human IgG Fc part, captured on the plate by goat anti human Fc antibody; a tag, no second protein
T3 sequence (P14151 39-318 limits assumed): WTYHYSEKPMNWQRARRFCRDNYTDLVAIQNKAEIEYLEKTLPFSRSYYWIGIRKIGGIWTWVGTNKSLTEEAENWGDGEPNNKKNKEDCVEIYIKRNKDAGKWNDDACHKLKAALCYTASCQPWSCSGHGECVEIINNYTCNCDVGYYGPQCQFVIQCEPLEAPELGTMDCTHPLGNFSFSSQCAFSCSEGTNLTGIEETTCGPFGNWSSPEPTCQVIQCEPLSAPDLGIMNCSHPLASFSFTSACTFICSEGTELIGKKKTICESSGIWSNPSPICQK
Procedure: as §1, §2, §3

[4] = test system: human P-selectin-IgG chimera; assay: Flow chamber assay, cell adhesion and rolling under flow conditions, P-selectin; assay type: cell-based; details: normalized ratio of %-inhibition of compound divided by %-inhibition of bimosiamose; 125 μM compound; HL-60 cells; flow shear 1 dyne/cm^2
Procedure: (§4) Flow Chamber Assay/Cell Adhesion and Rolling Under Flow Conditions
(§5) To assess the capability of compounds to inhibit cell binding under dynamic conditions resembling the flow in a blood vessel, flow chamber assays addressing/testing binding of HL-60 cells/various cell lines to P-selectin, L-selectin and E-selectin chimeric molecules are performed.
(§6) Cell attachment under flow conditions is determined using a parallel flow chamber system. A 35 mm polystyrene culture dish is coated for 1 hour at room temperature with coating buffer (50 mM tris-(hydroxymethyl)aminomethane buffer (Tris), 150 mM NaCl, 2 mM CaCl2; pH 7.4) containing human E- or P-selectin-IgG chimera at concentrations of 2.5 μg/ml or 10 μg/ml, respectively. After removal of the coating solution non specific binding sites are blocked for an additional hour with 1% BSA in coating buffer at room temperature. After washing with assay buffer (“Roswell Park Memorial Institute 1640” (RPMI 1640)+10 mM HEPES) the dish is fitted into a parallel plate laminar flow chamber (sold from Glycotech, Rockville, Md.) and mounted on an inverted phase-contrast microscope (sold from Olympus, Hamburg, Germany) equipped with a CCD camera (JVC) that is connected to a PC. Employing a peristaltic pump (sold from Ismatec, Wertheim-Mondfeld, Germany) the re-circulating system is equilibrated with assay buffer containing 125 μM compound or vehicle control (DMSO). Cells (1 million/ml) are added to the chamber and allowed to distribute for 2 minutes at a high flow rate. The flow rate is then decreased resulting in a calculated flow shear of 1 dyne/cm^2. Video sequences of 10 low power fields are digitally recorded after 5 minutes continuous flow. The percentage of inhibition is calculated from the mean number of cells per field that attached to the coated dish surface in the presence versus absence of compound […].

[5] = test system: human E-selectin-IgG chimera; assay: Flow chamber assay, cell adhesion and rolling under flow conditions, E-selectin; assay type: cell-based; details: normalized ratio of %-inhibition of compound divided by %-inhibition of bimosiamose; 125 μM compound; HL-60 cells; flow shear 1 dyne/cm^2
Procedure: as §4, §5, §6

## O=C(CCCNC(=O)c1cc(O)cc(O)c1)Nc1cccc(C(=O)O)c1 [Compound 21, 3-[4-(3,5-Dihydroxy-benzoylamino)-butyrylamino]-benzoic acid]
[1]
  P-Selectin [% inhib.]: 3.0 % inhib.
[2]
  E-Selectin [% inhib.]: 40.7 % inhib.
[3]
  L-Selectin [% inhib.]: 18.7 % inhib.

## COC(=O)c1cccc(NC(=O)CCCNC(=O)c2cc(O)cc(O)c2)c1 [Compound 22, 3-[4-(3,5-Dihydroxy-benzoylamino)-butyrylamino]-benzoic acid methyl ester]
[1]
  P-Selectin [% inhib.]: 22.7 % inhib.
[2]
  E-Selectin [% inhib.]: 42.7 % inhib.
[3]
  L-Selectin [% inhib.]: 21.3 % inhib.

## O=C(O)CN1CCN(C(=O)CCCNC(=O)c2cc(O)cc(O)c2)CC1 [Compound 23, {4-[4-(3,5-Dihydroxy-benzoylamino)-butyryl]-piperazin-1-yl}-acetic acid]
[1]
  P-Selectin [% inhib.]: 18.9 % inhib.
[2]
  E-Selectin [% inhib.]: 10.5 % inhib.
[3]
  L-Selectin [% inhib.]: 11.6 % inhib.

## O=C(CCCNC(=O)c1cc(O)cc(O)c1)Nc1ccc(C(=O)O)cc1 [Compound 24, 4-[4-(3,5-Dihydroxy-benzoylamino)-butyrylamino]-benzoic acid]
[1]
  P-Selectin [% inhib.]: 0.5 % inhib.
[2]
  E-Selectin [% inhib.]: 35.9 % inhib.
[3]
  L-Selectin [% inhib.]: 5.9 % inhib.

## O=C(O)CCc1cccc(NC(=O)CCCNC(=O)c2cc(O)cc(O)c2)c1 [Compound 32]
[1]
  P-Selectin [% inhib.]: 1.4 % inhib.
[2]
  E-Selectin [% inhib.]: 35.0 % inhib.
[3]
  L-Selectin [% inhib.]: 13.1 % inhib.

## COC(=O)CCc1cccc(NC(=O)CCCNC(=O)c2cc(O)cc(O)c2)c1 [Compound 33]
[1]
  P-Selectin [% inhib.]: 10.6 % inhib.
[2]
  E-Selectin [% inhib.]: 38.6 % inhib.
[3]
  L-Selectin [% inhib.]: 27.3 % inhib.

## O=C(O)Cc1cccc(NC(=O)CCCNC(=O)c2cc(O)cc(O)c2)c1 [Compound 34]
[1]
  P-Selectin [% inhib.]: 12.9 % inhib.
[2]
  E-Selectin [% inhib.]: 41.0 % inhib.
[3]
  L-Selectin [% inhib.]: 18.1 % inhib.

## COC(=O)Cc1cccc(NC(=O)CCCNC(=O)c2cc(O)cc(O)c2)c1 [Compound 35]
[1]
  P-Selectin [% inhib.]: 15.6 % inhib.
[2]
  E-Selectin [% inhib.]: 40.8 % inhib.
[3]
  L-Selectin [% inhib.]: 19.4 % inhib.

## Cc1ccc(C(=O)O)cc1NC(=O)CCCNC(=O)c1cc(O)cc(O)c1 [Compound 36]
[1]
  P-Selectin [% inhib.]: 1.2 % inhib.
[2]
  E-Selectin [% inhib.]: 35.8 % inhib.
[3]
  L-Selectin [% inhib.]: 6.8 % inhib.

## COC(=O)c1ccc(C)c(NC(=O)CCCNC(=O)c2cc(O)cc(O)c2)c1 [Compound 37]
[1]
  P-Selectin [% inhib.]: 5.2 % inhib.
[2]
  E-Selectin [% inhib.]: 38.9 % inhib.
[3]
  L-Selectin [% inhib.]: 9.5 % inhib.

## Cc1c(NC(=O)CCCNC(=O)c2cc(O)cc(O)c2)cccc1C(=O)O [Compound 38]
[1]
  P-Selectin [% inhib.]: 9.4 % inhib.
[2]
  E-Selectin [% inhib.]: 40.9 % inhib.
[3]
  L-Selectin [% inhib.]: 19.3 % inhib.

## COC(=O)Cc1ccc(-c2ccccc2NC(=O)c2cccc(-c3ccc(O)cc3O)c2)s1 [Compound 64, (5-{2-[(2′,4′-Dihydroxy-biphenyl-3-carbonyl)-amino]-phenyl}-thiophen-2-yl)acetic acid methyl ester]
[4]
  P-Selectin [Ratio]: 1.70 Ratio
[1]
  IC50: 50 µM
[5]
  E-Selectin [Ratio]: 1.34 Ratio
[3]
  IC50: 62.3 µM

## COc1ccc(-c2cccc(C(=O)Nc3ccccc3-c3ccc(C(=O)O)s3)c2)c(OC)c1 [Compound 66]
[4]
  P-Selectin [Ratio]: 0.76 Ratio
[1]
  IC50: 67.8 µM
[5]
  E-Selectin [Ratio]: 1.21 Ratio
[3]
  IC50: 152 µM

## O=C(Nc1ccccc1-c1ccc(C(=O)O)s1)c1cccc(-c2ccc(O)cc2O)c1 [Compound 67]
[4]
  P-Selectin [Ratio]: 0.92 Ratio
[1]
  IC50: 201 µM
[5]
  E-Selectin [Ratio]: 1.60 Ratio
[3]
  IC50: 434 µM

## O=C(O)Cc1ccc(-c2ccccc2NC(=O)c2cncc(-c3ccc(O)cc3O)c2)s1 [Compound 73, [5-(2-{[5-(2,4-Dihydroxy-phenyl)-pyridine-3-carbonyl]-amino}-phenyl)-thiophen-2-yl]-acetic acid]
[4]
  P-Selectin [Ratio]: 1.20 Ratio
[1]
  IC50: 260 µM
[5]
  E-Selectin [Ratio]: 0.99 Ratio
[3]
  IC50: 502 µM

## COc1cc(OC)cc(-c2cccc(C(=O)Nc3ccccc3-c3ccc(CC(=O)O)s3)c2)c1 [Compound 81, (5-{2-[(3′,5′-Dimethoxy-biphenyl-3-carbonyl)-amino]-phenyl}-thiophen-2-yl)-acetic acid]
[4]
  P-Selectin [Ratio]: 1.55 Ratio
[1]
  IC50: 35.3 µM
[5]
  E-Selectin [Ratio]: 1.27 Ratio
[3]
  IC50: 131 µM

## COc1cc(OC)cc(-c2cccc(C(=O)Nc3ccccc3-c3ccc(C(=O)O)s3)c2)c1 [Compound 84, 5-{2-[(3′,5′-Dimethoxy-biphenyl-3-carbonyl)-amino]-phenyl}-thiophene-2-carboxylic acid]
[4]
  P-Selectin [Ratio]: 1.02 Ratio
[1]
  IC50: 46.6 µM
[5]
  E-Selectin [Ratio]: 1.36 Ratio
[3]
  IC50: 144 µM
